Measured values from patent US12396459B2, “Synergistically effective herbicide composition comprising pyridate and at least one defined 4-HPPD inhibitor” (BELCHIM CROP PROTECTION NV, priority 2018, dated 2025).
Read-outs that look alike come from different tables or passages of the source.

What was measured:
Type in all cases: in vivo
Persicaria maculosa = test: Field trial post-emergence in maize: POLPE; conditions: for herbicidal effect (h.e.): g a.c./ha: PYR 300, MES 100, PYR + MES 300 + 90
Experimental: (§1) Herbicidal activity of herbicide compositions according to the first aspect of the present invention with regard to different types of unwanted vegetation was determined during trials performed on test fields (field trials). Individual compositions comprising pyridate and individual compositions comprising a defined 4-HPPD inhibitor are compared with a herbicide composition according to the invention comprising both pyridate and a defined 4-HPPD inhibitor. The expected activity of the combination of the active compounds pyridate and a defined 4-HPPD inhibitor is calculated according to above mentioned calculation method by Colby, in order to evaluate a synergistic effect between pyridate and a defined 4-HPPD inhibitor.
(§2) Herbicidal activity was determined by applying herbicide compositions on emerged unwanted vegetation on fields where maize was cultivated. Pyridate and a defined 4-HPPD inhibitor were applied as a tank mixture by mixing these active compounds prior to use in a spray tank. The corresponding mixture was in the form of a spray liquor. Besides, spray liquors of individual compositions comprising pyridate and of individual compositions comprising a defined 4-HPPD inhibitor were used. Test plants of unwanted vegetation with a growth stage corresponding to BBCH 10-18 (according to the extended BBCH-scale) were sprayed with the active compound preparations such that particular desired amounts of active compounds are applied per unit area. Spray liquor was diluted with water to arrive at an application volume of 50 to 450 L/ha. At a specified number of days after application (DAA), the degree of damage to the unwanted vegetation is rated in % of plants of unwanted vegetation that were killed, which was assessed by visually controlling the plants.

Amaranthus retroflexus = test: Field trial post-emergence in maize: AMARE; conditions: 13-14 DAA; # = 1; g a.c./ha: PYR 450, MES 144, PYR + MES 450 + 144
Experimental: as §1, §2

Cirsium arvense = test: Field trial post-emergence in maize: CIRAR; conditions: # = 1, g a.c./ha: PYR 300, MES 100, PYR + MES 300 + 90
Experimental: as §1, §2

Setaria verticillata = test: Examples 6-8 herbicidal effect: SETVE; conditions: 7 DAA
Xanthium spinosum = test: Field trial post-emergence in maize: XANSP; conditions: 7-14 DAA; # = 3; g a.c./ha: PYR 300, MES 100, PYR + MES 300 + 90
Experimental: as §1
(§3) Herbicidal activity was determined by applying herbicide compositions on emerged unwanted vegetation on fields where maize was cultivated. Pyridate and a defined 4-HPPD inhibitor were applied as a tank mixture by mixing these active compounds prior to use in a spray tank. The corresponding mixture was in the form of a spray liquor. […] At a specified number of days after application (DAA), the degree of damage to the unwanted vegetation is rated in % of plants of unwanted vegetation that were killed, which was assessed by visually controlling the plants.

Mercurialis annua = test: Field trial post-emergence in maize: MERAN
Experimental: as §1, §2
(§4) Example 1 concerns a herbicide composition comprising a combination of pyridate and mesotrione, which was applied post-emergence on unwanted vegetation on a field where maize was cultivated, according to the test conditions mentioned above.

Rumex obtusifolius = test: Field trial post-emergence in maize: RUMOB
Experimental: as §1, §2, §4

Brassica napus = test: Field trial post-emergence in maize: BRSNN; conditions: # = 1, g a.c./ha: PYR 300, MES 100, PYR + MES 300 + 90
Experimental: as §1, §2

Galinsoga parviflora = test: Field trial post-emergence in maize: GASPA; conditions: 31-48 DAA; # = 3; g a.c./ha: PYR 300, MES 100, PYR + MES 300 + 90
Experimental: as §1, §3

Stachys arvensis = test: Field trial post-emergence in maize: STAAR; conditions: 7-14 DAA; # = 1; g a.c./ha: PYR 300, MES 100, PYR + MES 300 + 90
Experimental: as §1, §3

Hibiscus ternatus = test: Field trial post-emergence in maize: HIBTR; conditions: 7-14 DAA; # = 2; g a.c./ha: PYR 300, MES 100, PYR + MES 300 + 90
Experimental: as §1, §3

Digitaria sanguinalis = test: Examples 6-8 herbicidal effect: DIGSA; conditions: 7 DAA
Papaver rhoeas = test: Field trial post-emergence in maize: PAPRH; conditions: # = 1, g a.c./ha: PYR 300, MES 100, PYR + MES 300 + 90
Experimental: as §1, §2

Capsella bursa-pastoris = test: Field trial post-emergence in maize: CAPBP
Experimental: as §1, §2

Fallopia convolvulus = test: Field trial post-emergence in maize: POLCO
Experimental: as §1, §2

Galium aparine = test: Field trial post-emergence in maize: GALAP
Experimental: as §1, §2, §4

Echinochloa crus-galli = test: Field trial post-emergence in maize: ECHCG; conditions: for herbicidal effect (h.e.): g a.c./ha: PYR 300, MES 100, PYR + MES 300 + 90
Experimental: as §1, §2

Solanum nigrum = test: Field trial post-emergence in maize: SOLNI; conditions: for herbicidal effect (h.e.): g a.c./ha: PYR 300, MES 100, PYR + MES 300 + 90
Experimental: as §1, §2

[1] = g a.c./ha: MES 50, PYR + SMO 300 + 800
[2] = g a.c./ha: MES 80, PYR + MES 300 + 50

**Q.** Which results are given for CS(=O)(=O)c1ccc(C(=O)C2C(=O)CCCC2=O)c([N+](=O)[O-])c1 [MES, 2-(4-methylsulfonyl-2-nitrobenzoyl) cyclohexane-1,3-dione]?
**A.** herbicidal effect (h.e.) (Persicaria maculosa; 7-14 DAA, # = 3): 91%; herbicidal effect (h.e.) (Persicaria maculosa; 31-48 DAA, # = 4): 89%; MES h.e. (Persicaria maculosa; POLPE 14-20 DAA 45 g a.c./ha): 83%; MES h.e. (Persicaria maculosa; POLPE 14-20 DAA 90 g a.c./ha): 98%; MES h.e. (Persicaria maculosa; POLPE 14-20 DAA 135 g a.c./ha): 98%; MES h.e. (Persicaria maculosa; POLPE 24-31 DAA 45 g a.c./ha): 93%; herbicidal effect (h.e.) (Amaranthus retroflexus): 45%; herbicidal effect (h.e.) (Cirsium arvense; 7-14 DAA): 58%; herbicidal effect (h.e.) (Cirsium arvense; 31-48 DAA): 78%; herbicidal effect (h.e.) (Setaria verticillata; [1]): 0%; herbicidal effect (h.e.) (Setaria verticillata; [2]): 3%; herbicidal effect (h.e.) (Xanthium spinosum): 97%; MES h.e. (Mercurialis annua; MERAN 14-20 DAA 45 g a.c./ha): 95%; MES h.e. (Mercurialis annua; MERAN 24-31 DAA 45 g a.c./ha): 70%; MES h.e. (Rumex obtusifolius; RUMOB 14-20 DAA 45 g a.c./ha): 87%; MES h.e. (Rumex obtusifolius; RUMOB 14-20 DAA 90 g a.c./ha): 95%; MES h.e. (Rumex obtusifolius; RUMOB 14-20 DAA 135 g a.c./ha): 95%; herbicidal effect (h.e.) (Brassica napus; 7-14 DAA): 86%; herbicidal effect (h.e.) (Brassica napus; 18-28 DAA): 85%; herbicidal effect (h.e.) (Brassica napus; 31-48 DAA): 84%; herbicidal effect (h.e.) (Galinsoga parviflora): 97%; herbicidal effect (h.e.) (Stachys arvensis): 54%; herbicidal effect (h.e.) (Hibiscus ternatus): 62%; herbicidal effect (h.e.) (Digitaria sanguinalis; [1]): 95%; herbicidal effect (h.e.) (Digitaria sanguinalis; [2]): 92%; herbicidal effect (h.e.) (Papaver rhoeas; 18-28 DAA): 80%; herbicidal effect (h.e.) (Papaver rhoeas; 31-48 DAA): 89%; MES h.e. (Capsella bursa-pastoris): 97%; herbicidal effect (h.e.) (Capsella bursa-pastoris; 7-14 DAA, # = 3, g a.c./ha: PYR 300, MES 100, PYR + MES 300 + 90): 90%; MES h.e. (Capsella bursa-pastoris; CAPBP 14-20 DAA 300 g a.c./ha): 97%; MES h.e. (Capsella bursa-pastoris; CAPBP 14-20 DAA 600 g a.c./ha): 97%; MES h.e. (Capsella bursa-pastoris; CAPBP 24-31 DAA 45 g a.c./ha): 97%; herbicidal effect (h.e.) (Fallopia convolvulus; 7-14 DAA, # = 5, g a.c./ha: PYR 300, MES 100, PYR + MES 300 + 90): 68%; herbicidal effect (h.e.) (Fallopia convolvulus; 13-14 DAA, # = 1, g a.c./ha: PYR 450, MES 144, PYR + MES 450 + 144): 92%; herbicidal effect (h.e.) (Fallopia convolvulus; 18-28 DAA, # = 8, g a.c./ha: PYR 300, MES 100, PYR + MES 300 + 90): 77%; herbicidal effect (h.e.) (Fallopia convolvulus; 31-48 DAA, # = 8, g a.c./ha: PYR 300, MES 100, PYR + MES 300 + 90): 68%; MES h.e. (Fallopia convolvulus; POLCO 14-20 DAA 45 g a.c./ha): 77%; MES h.e. (Fallopia convolvulus; POLCO 14-20 DAA 90 g a.c./ha): 89%; MES h.e. (Fallopia convolvulus; POLCO 24-31 DAA 45 g a.c./ha): 80%; MES h.e. (Fallopia convolvulus; POLCO 24-31 DAA 135 g a.c./ha): 97%; MES h.e. (Galium aparine; GALAP 14-20 DAA 45 g a.c./ha): 30%; MES h.e. (Galium aparine; GALAP 14-20 DAA 90 g a.c./ha): 80%; MES h.e. (Galium aparine; GALAP 14-20 DAA 135 g a.c./ha): 92%; MES h.e. (Galium aparine; GALAP 24-31 DAA 45 g a.c./ha): 40%; MES h.e. (Galium aparine; GALAP 24-31 DAA 90 g a.c./ha): 90%; MES h.e. (Galium aparine; GALAP 24-31 DAA 135 g a.c./ha): 91%; herbicidal effect (h.e.) (Echinochloa crus-galli; 7-14 DAA, # = 9): 67%; herbicidal effect (h.e.) (Echinochloa crus-galli; 18-28 DAA, # = 14): 51%; herbicidal effect (h.e.) (Echinochloa crus-galli; 31-48 DAA, # = 13): 50%; MES h.e. (Echinochloa crus-galli; ECHCG 14-20 DAA 45 g a.c./ha): 86%; MES h.e. (Echinochloa crus-galli; ECHCG 14-20 DAA 90 g a.c./ha): 95%; MES h.e. (Echinochloa crus-galli; ECHCG 14-20 DAA 135 g a.c./ha): 97%; MES h.e. (Echinochloa crus-galli; ECHCG 24-31 DAA 45 g a.c./ha): 80%; MES h.e. (Echinochloa crus-galli; ECHCG 24-31 DAA 90 g a.c./ha): 95%; MES h.e. (Echinochloa crus-galli; ECHCG 24-31 DAA 135 g a.c./ha): 97%; herbicidal effect (h.e.) (Solanum nigrum; 18-28 DAA, # = 7): 91%; herbicidal effect (h.e.) (Solanum nigrum; 31-48 DAA, # = 6): 93%; MES h.e. (Solanum nigrum; SOLNI 14-20 DAA 45 g a.c./ha): 95%
